These results are taken from patent US12655091B2, “N-benzyl-alpha-aminoamides as anaphase-promoting complex/cyclosome (APC/C) inhibitors” (CONSEJO SUPERIOR DE INVESTIGACIONES CIENTÍFICAS (CSIC), priority 2020, dated 2026).

Structures are written as SMILES. Several values for one entry are separate records, joined by “and”; a condition that tells them apart may be missing. Identical values can stand only once. Entries after “also recorded” stand apart in the source; their conditions may differ. Like-named read-outs stand apart in the source and are kept apart here.

Data set [1] concerns the target T1, APC/C activation by Cdc20 (Homo sapiens, UniProt Q12834).
T1 construct: endogenous in cells; the method paragraph speaks of HeLa cells
The data set is described as follows: Western blot of Cyclin B1 levels (inhibition of APC/C activation by Cdc20). It is filed as cell-based. Conditions: HCC-38 cells, FIG. 9. As for the experimental part: FIG. 9. […] Consequently, non-ubiquitylated Cyclin B escapes degradation by the proteasome. […] HCC-38 cells at a density of 200,000 cells per well were used in this study.
The entirety of the following procedure was carried out under aseptic conditions. HeLa cells were counted and seeded into clear bottom 6-well plates (Greiner Bio-One) at a density of 200,000 cells/well in a volume of 2 ml and placed in an incubator (37° C., 5% CO2) overnight. The following day medium was aspired and 1.5 ml of treatment was added to wells. Cells were treated with controls (medium alone) and compounds. All stock solutions of the small compounds were prepared by resuspension of the solid in DSMO, then diluted in medium to the final concentrations being tested. The effect of these compounds on mitosis was analysed by measuring Cyclin B1 levels, a downstream target of APC/C-Cdc20. Cells were incubated and had 24 hours treatment exposure. Plates were then placed on ice and solution from each well was aspired. […]
For orientation: Immunoblotting shows a protein as a band on a membrane.

The subject of data set [2] is HCC-38 triple negative breast cancer cells. The data set can be described thus: Clonogenic assay of HCC-38 cells. The data set is classed as cell-based. Conditions: HCC-38, 24 hours treatment, stained after 12 days, FIG. 7. As for the experimental part:
FIG. 7. Clonogenic assay of HCC-38 cells treated with DMSO (1.2% v/v), the Mps1 kinase inhibitor Reversine, the Cdc20 binder Apcin and compound o-TFB-Tyr. The clones were stained after 12 days incubation at 37 Celsius. Following treatment of the HCC38 cells with the compounds for 24 hours, the medium was exchanged every 48 hrs.
The entirety of the following procedure was carried out under aseptic conditions. HeLa cells were counted and seeded into clear bottom 6-well plates (Greiner Bio-One) at density 500 cells/well (250 cells/ml). 2 ml of cells were added to each well and placed in the incubator (37° C., 5% CO2) overnight. The following day medium was aspired and 1.5 ml of treatment was added to wells. Cells were treated with control (medium alone) and compounds. All stock solutions of compounds were prepared by resuspension of the solid in DMSO, then diluted in medium to the final concentrations being tested. HeLa cells viability was measured using clonogenic assay, a cell survival-based assay that determines cell reproductive death after treatment with cytotoxic agents. Cells were incubated and had 72 hours treatment exposure. […]
Each well of the clonogenic assay was then scanned using an Axiozoom Zeiss Axioplan fluorescence microscope equipped for DIC imaging and fluorescence imaging and analysed using the ImageJ2 image-processing software (Fiji). […]

Data set [3] in a line: Kinetic solubility, turbidimetric method. It is filed as physicochemical. On the procedure: Kinetic solubility. This is a valuable initial screen that was carried out prior to starting ADME test in order to identify potential issues and to determine appropriate concentration ranges. Kinetic solubility was measured using a turbidimetric method.
Data set [4] is described as follows: Intestinal permeability assay in Caco-2 cells. Conditions: human. The data set is classed as in vitro ADME, human. On the procedure: (§1) This was determined using an intestinal permeability assay in Caco-2 cells, a human colorectal adenocarcinoma cell line (see FIG. 4).
On the technique in general: Passage across Caco-2 layers is used to estimate intestinal permeability.

The test system of data set [5] is Caco-2 cells. The data set can be described thus: Intestinal permeability assay in Caco-2 cells. The data set is classed as in vitro ADME, human. As for the experimental part: as §1
A short description of data set [6]: Metabolic stability test (liver microsomes). The data set is classed as in vitro ADME, Human. The source says:
The liver is the major drug metabolising organ for the large majority of pharmaceutical drugs. A good in vitro model to investigate drug metabolism is based on the use of microsomes, a subcellular fraction of the liver.
(In general: Liver microsomes are a subcellular fraction often used to study metabolism.)

Data set [7] has as its target CYP3A4 (Homo sapiens, UniProt P08684). The data set can be described thus: Cytochrome P450 inhibition IC50 determination (isoform CYP3A4). It is filed as in vitro ADME. Conditions: for inhibition at 0.1 µM / inhibition at 0.25 µM / inhibition at 1 µM / inhibition at 2.5 µM / inhibition at 10 µM / inhibition at 25 µM: human; for inhibition at 0.1 µM: CYP3A4, 0.1 μM; for inhibition at 0.25 µM: CYP3A4, 0.25 μM; for inhibition at 1 µM: CYP3A4, 1 μM; for inhibition at 2.5 µM: CYP3A4, 2.5 μM; for inhibition at 10 µM: CYP3A4, 10 μM; for inhibition at 25 µM: CYP3A4, 25 μM. The source says: Two thirds of drugs cleared by metabolism are metabolised at least in part by the cytochrome P450 (CYP) enzymes with the isoform CYP3A4 accounting for almost 50% of all CYP activity. For this reason, we tested whether CYP3A4 is implicated in the clearance of o-TFB-Tyr. […]

Data set [8] in a line: Plasma protein binding assay (human). The data set is classed as in vitro ADME. The settings on record: plasma spiked 1 side; for fraction unbound: plasma. The source says: (§2) Non-specific plasma protein binding can greatly affect the extent of free drug concentration which may influence the lead compound's subsequent inhibitory potential (see table 6 below).
Data set [9] has as its system plasma protein. The data set can be described thus: Plasma protein binding assay (human). The data set is classed as in vitro ADME.
Source text: as §2

Data set [10] can be described thus: Plasma protein binding assay (mouse). The data set is classed as in vitro ADME. Conditions: plasma spiked 1 side; for fraction unbound: plasma.
Source text: as §2

The subject of data set [11] is plasma protein. The data set can be described thus: Plasma protein binding assay (mouse). It is filed as in vitro ADME.
Source text: as §2

The subject of data set [12] is HeLa cells. The data set is described as follows: MTT cytotoxicity assay in HeLa cells. It is filed as cell-based. On the procedure:
The entirety of the following protocol was carried out under aseptic conditions. HeLa cells were cultured in Dulbecco's Modified Eagle's Medium (DMEM) supplemented with 10% Fetal Bovine Serum (FBS) (Sigma F7524). Cells were counted and seeded into clear bottom 96-well plates (Greiner Bio-One) at density 6,000 cells/well. 100 μl of cells were added to each well and placed in the incubator overnight. The following day medium was aspired and 100 μL of treatment was added to wells. Cells were treated with controls (medium alone, Reversine 5 μM, Apcin 25 μM). […]
In vitro cytotoxic analysis involved quantitative measurements of cell proliferation and the subsequent assessment of the relative toxicity of the compounds. (3-(4,5-Dimethylthiazol-2-yl)-2,5-Diphenyltertrazolium Bromide (MTT) is a widely utilised cytotoxic assay that measures cellular metabolic activity as an indicator for cell viability, proliferation and cytotoxicity from the reduction of water soluble yellow tetrazole MTT to insoluble purple formazan crystals by mitochondrial dehydrogenases. The insoluble purple crystalline product was dissolved in DMSO and the resulting coloured solution quantified by measuring the absorbance (570 nm). Reduction can only occur when mitochondrial reductive enzymes are active, thus a direct correlation to the number of viable cells. […]

Where [13] appears, read: kinetic solubility, turbidimetric.
Setting [14] is: probe testosterone, read-out: % inhibition with substrate testosterone.
The mark [15] stands for this setting: read-out: % inhibition with substrate midazolam.
[16] abbreviates: read-out: Fraction unbound Replicate 1.
Where [17] appears, read: read-out: Fraction unbound Replicate 2.
Where [18] appears, read: read-out: Fraction unbound Replicate 3.
Setting [19] is: read-out: Mean fraction unbound.

T1 sequence (Q12834 whole entry): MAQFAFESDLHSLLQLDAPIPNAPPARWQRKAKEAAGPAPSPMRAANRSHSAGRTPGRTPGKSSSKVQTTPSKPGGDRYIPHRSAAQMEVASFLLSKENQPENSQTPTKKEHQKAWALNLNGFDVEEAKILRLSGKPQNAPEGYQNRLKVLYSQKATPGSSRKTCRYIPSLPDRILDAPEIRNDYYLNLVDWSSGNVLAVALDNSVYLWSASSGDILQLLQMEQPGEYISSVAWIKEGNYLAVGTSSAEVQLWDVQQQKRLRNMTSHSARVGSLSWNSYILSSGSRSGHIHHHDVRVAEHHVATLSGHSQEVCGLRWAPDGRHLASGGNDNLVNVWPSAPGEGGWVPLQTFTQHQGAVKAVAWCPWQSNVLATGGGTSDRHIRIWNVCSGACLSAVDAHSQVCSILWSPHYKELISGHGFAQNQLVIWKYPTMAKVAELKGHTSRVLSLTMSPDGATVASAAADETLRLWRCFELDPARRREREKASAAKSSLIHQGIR
Chain of CYP3A4 (P08684 whole entry, canonical isoform): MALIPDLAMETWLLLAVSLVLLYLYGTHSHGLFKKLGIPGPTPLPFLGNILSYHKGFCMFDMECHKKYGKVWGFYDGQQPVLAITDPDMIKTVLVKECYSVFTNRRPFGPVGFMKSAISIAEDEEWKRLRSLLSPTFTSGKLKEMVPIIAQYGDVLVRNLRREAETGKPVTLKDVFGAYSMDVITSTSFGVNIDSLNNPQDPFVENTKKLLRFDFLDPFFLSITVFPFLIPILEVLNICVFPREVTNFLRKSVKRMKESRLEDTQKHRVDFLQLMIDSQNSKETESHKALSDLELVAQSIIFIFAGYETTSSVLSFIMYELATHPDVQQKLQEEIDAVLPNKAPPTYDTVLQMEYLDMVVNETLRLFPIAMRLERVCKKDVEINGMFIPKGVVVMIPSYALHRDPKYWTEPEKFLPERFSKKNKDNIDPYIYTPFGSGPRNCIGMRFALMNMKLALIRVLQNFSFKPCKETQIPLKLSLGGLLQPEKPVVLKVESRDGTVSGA

Take `Cc1ncc([N+](=O)[O-])n1CCOC(=O)NC(Nc1ncccn1)C(Cl)(Cl)Cl` (stereo not shown) [Apcin, reference compound]: in data set [1], the “Inhibition of Cyclin B ubiquitylation by APC/C / APC/C activation by Cdc20” value is reported as “comparatively less effective than compound o-TFB-Tyr”.
Regarding `c1nc2nc(Nc3ccc(N4CCOCC4)cc3)nc(NC3CCCCC3)c2[nH]1` [Reversine, reference compound], the “Number of clones” value in data set [2] was “lower number of triple negative breast cancer cell clones”.
`N[C@@H](Cc1ccc(O)cc1)C(=O)NCc1ccccc1C(F)(F)F` [o-TFB-Tyr, (2S)-2-amino-N-[2-(trifluoromethyl)benzyl]-3-[4-(hydroxy)phenyl]propanamide]: the “Solubility in aqueous solutions” value in data set [3] is “readily soluble in aqueous solutions”. Further, the “Estimated Precipitation Range, Calculated mid-range” value in [3] (setting [13]) was more than 100 µM. Besides, in [3] (setting [13]), the “Estimated Precipitation Range, Lower bound” value is 100 µM. In addition, the “Estimated Precipitation Range, Upper bound” value in [3] (setting [13]) was more than 100 µM. The recovery in data set [4] (Caco-2, Caco2, A to B, read-out: Direction A to B Mean % recovery) was 62.8%; in [4] (Caco-2, Caco2, B to A, read-out: Direction B to A Mean % recovery), 88.9%; in [8], 101%; in [10], 102%. Besides, the efflux ratio in data set [4] (Caco-2, Caco2, read-out: Efflux ratio (Mean Papp B to A/Mean Papp A to B)) came to 0.862. Also, the “Active transport by membrane proteins such as ABC transporters” value in [5] (Caco2) is listed as “not actively transported”. Further, the “Diffusion across the membrane” value in data set [5] (Caco2) is “diffuses freely across the semipermeable membrane in both directions”. This compound had a Direction A to B Mean Papp in data set [5] (Caco2, A to B) of 22.1 ×10⁻⁶ cm/s. Also, in [5] (Caco2, B to A), the Direction B to A Mean Papp stood at 19.1 ×10⁻⁶ cm/s. Further, the “Metabolic stability” value in [6] (Human microsomes) is reported as “stable”. Moreover, the “Compound remaining (% of 0 min)” value in data set [6] (Human, 0 min) is 100 % of 0 min; in data set [6] (Human, 5 min), 107 % of 0 min; in data set [6] (Human, 15 min) it was 43.7 % of 0 min; in data set [6] (Human, 30 min) it was 19.3 % of 0 min; in data set [6] (Human, 45 min) it was 8 % of 0 min and 8.23 % of 0 min. Also, the “Compound remaining (% of 0 min), Control” value in data set [6] (Human, Control incubation) is 89.8 % of 0 min. In addition, in data set [7] (CYP3A4, midazolam and testosterone as substrates), the “IC50 compared with control compounds” value is listed as “much higher than that of controls compounds”. Besides, the inhibition (in general, the relative decrease from the control value, in per cent) at 0.1 µM was -0.99% in data set [7] (setting [14]) and 13.7% in [7] (setting [15]). Also, the values for the inhibition at 0.25 µM in data set [7] (setting [14]) and in data set [7] (setting [15]) were 0.136% and 22.5%, respectively. Further, the inhibition at 1 µM in data set [7] (setting [14]) is 4.21%; in data set [7] (setting [15]), 47.5%. For the same compound, the inhibition at 2.5 µM came out at 49% in [7] (setting [14]) and 65.6% in [7] (setting [15]). Besides, the inhibition at 10 µM in data set [7] (setting [14]) was 77.3%; in data set [7] (setting [15]) it was 84.4%. Also, the inhibition at 25 µM turned out to be 89.5% in data set [7] (setting [14]) and 91.1% in data set [7] (setting [15]). The fraction unbound (commonly free concentration divided by total concentration) in data set [8] (setting [16]) was found to be 0.352; in data set [8] (setting [17]) it was 0.328; in [8] (setting [18]), 0.304; in data set [8] (setting [19]) it was 0.328; in data set [10] (setting [16]) it was 0.28; in data set [10] (setting [17]), 0.28. Moreover, the fraction unbound was 0.301 in data set [10] (setting [18]) and 0.287 in data set [10] (setting [19]). Also, the “Non-specific plasma protein binding” value in data set [9] and in data set [11] was “absence of non-specific plasma protein binding” each time. Besides, in [12] (MTT, FIGS. 5 and 6), the “Relative cytotoxicity compared with other compounds” value is “higher cytotoxic effect”. Also, the “Cytotoxic activity, concentration range” value in [12] (cytotoxicity and clonogenic studies) lay in the range of 200 to 10 μM. In addition, the “Number of clones” value in data set [2] is reported as “lower number of triple negative breast cancer cell clones”. In data set [1], the “Inhibition of Cyclin B ubiquitylation by APC/C / APC/C activation by Cdc20” value was “confirmed the inhibitory effect of this compound on APC/C activation by Cdc20; also recorded: confirmed the inhibition of APC/C activation by Cdc20; also recorded: causes inhibition of Cyclin B ubiquitylation by APC/C”.
